Molecular target: ATP-dependent translocase ABCB1 (Rattus norvegicus, UniProt P43245)
Test: TP_TRANSPORTER: RT-PCR in vitro, liver epithelial cells
Assay type: functional, tissue-based
Details: epithelial cell

ATP-dependent translocase ABCB1, sequence (P43245 whole entry): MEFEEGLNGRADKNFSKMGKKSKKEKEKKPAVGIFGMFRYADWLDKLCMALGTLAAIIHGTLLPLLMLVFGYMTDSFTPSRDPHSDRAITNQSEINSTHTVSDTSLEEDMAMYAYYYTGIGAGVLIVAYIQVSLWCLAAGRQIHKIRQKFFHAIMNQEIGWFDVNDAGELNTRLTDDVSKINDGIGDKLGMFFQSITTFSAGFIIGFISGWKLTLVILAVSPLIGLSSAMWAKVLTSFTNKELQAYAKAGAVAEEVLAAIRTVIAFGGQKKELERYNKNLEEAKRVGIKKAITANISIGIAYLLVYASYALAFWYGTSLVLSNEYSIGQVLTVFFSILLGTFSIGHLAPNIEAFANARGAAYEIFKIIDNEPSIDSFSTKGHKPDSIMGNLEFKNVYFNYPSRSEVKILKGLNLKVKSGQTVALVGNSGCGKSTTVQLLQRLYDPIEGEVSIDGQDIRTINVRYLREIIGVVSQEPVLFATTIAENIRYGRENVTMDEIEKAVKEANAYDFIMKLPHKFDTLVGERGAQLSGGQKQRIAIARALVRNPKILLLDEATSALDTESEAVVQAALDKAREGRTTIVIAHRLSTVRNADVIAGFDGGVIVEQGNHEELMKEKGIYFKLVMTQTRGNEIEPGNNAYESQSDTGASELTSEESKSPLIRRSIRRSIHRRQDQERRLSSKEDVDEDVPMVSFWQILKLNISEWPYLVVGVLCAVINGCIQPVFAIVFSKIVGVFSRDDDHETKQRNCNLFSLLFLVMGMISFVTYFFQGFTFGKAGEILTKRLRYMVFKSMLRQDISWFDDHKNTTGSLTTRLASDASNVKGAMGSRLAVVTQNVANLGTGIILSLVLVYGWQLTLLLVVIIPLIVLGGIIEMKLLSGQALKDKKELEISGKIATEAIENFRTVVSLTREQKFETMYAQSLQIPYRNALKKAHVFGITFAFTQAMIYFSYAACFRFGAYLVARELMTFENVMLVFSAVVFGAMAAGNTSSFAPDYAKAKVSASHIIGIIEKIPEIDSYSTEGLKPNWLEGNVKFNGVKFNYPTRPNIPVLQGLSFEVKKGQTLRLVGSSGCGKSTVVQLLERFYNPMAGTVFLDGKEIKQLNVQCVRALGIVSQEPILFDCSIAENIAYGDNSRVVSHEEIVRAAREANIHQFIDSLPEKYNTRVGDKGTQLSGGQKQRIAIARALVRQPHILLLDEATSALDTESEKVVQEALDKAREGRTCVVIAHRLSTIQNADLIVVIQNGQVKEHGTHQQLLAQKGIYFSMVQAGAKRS

## COS(C)(=O)=O [METHANESULFONIC ACID METHYL ESTER]
  Activity: inducer [+]
